Laboratory results as given in the supplement of paper PMC11451515.

Tested on: NOMO1
Experiment: cell viability relative to DMSO control; higher = less cytotoxic
Conditions: 48 h
Summary of the method: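 NOMO1 or SEM cells were plated at 500 cells/well and P12-Ichikawa cells at 1000 cells/well in 1536-well plates (5 μl), after each leukemia line had been adapted for at least four passages in each medium. Pin dosing delivered library compounds in DMSO at 11 threefold concentrations, 47 μM to 0.79 nM. CellTiter-Glo One luminescence was read after 48 h at 37°C. Viability is reported as a per-plate percentage of DMSO wells, with cell-free wells as background.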

[1] = HPLM + 10% dialyzed FBS, 0.000781 µM
[2] = HPLM + 10% dialyzed FBS, 0.00234 µM
[3] = HPLM + 10% dialyzed FBS, 0.00702 µM
[4] = HPLM + 10% dialyzed FBS, 0.0211 µM
[5] = HPLM + 10% dialyzed FBS, 0.0632 µM
[6] = HPLM + 10% dialyzed FBS, 0.19 µM
[7] = HPLM + 10% dialyzed FBS, 0.569 µM
[8] = HPLM + 10% dialyzed FBS, 1.71 µM
[9] = HPLM + 10% dialyzed FBS, 5.12 µM
[10] = HPLM + 10% dialyzed FBS, 15.4 µM
[11] = HPLM + 10% dialyzed FBS, 46.1 µM
[12] = RPMI 5 mM glucose + 10% FBS, 0.000781 µM
[13] = RPMI 5 mM glucose + 10% FBS, 0.00234 µM
[14] = RPMI 5 mM glucose + 10% FBS, 0.00702 µM
[15] = RPMI 5 mM glucose + 10% FBS, 0.0211 µM
[16] = RPMI 5 mM glucose + 10% FBS, 0.0632 µM
[17] = RPMI 5 mM glucose + 10% FBS, 0.19 µM
[18] = RPMI 5 mM glucose + 10% FBS, 0.569 µM
[19] = RPMI 5 mM glucose + 10% FBS, 1.71 µM
[20] = RPMI 5 mM glucose + 10% FBS, 5.12 µM
[21] = RPMI 5 mM glucose + 10% FBS, 15.4 µM
[22] = RPMI 5 mM glucose + 10% FBS, 46.1 µM
[23] = RPMI 5 mM glucose + 10% dialyzed FBS, 0.000781 µM
[24] = RPMI 5 mM glucose + 10% dialyzed FBS, 0.00234 µM
[25] = RPMI 5 mM glucose + 10% dialyzed FBS, 0.00702 µM
[26] = RPMI 5 mM glucose + 10% dialyzed FBS, 0.0211 µM
[27] = RPMI 5 mM glucose + 10% dialyzed FBS, 0.0632 µM
[28] = RPMI 5 mM glucose + 10% dialyzed FBS, 0.19 µM
[29] = RPMI 5 mM glucose + 10% dialyzed FBS, 0.569 µM
[30] = RPMI 5 mM glucose + 10% dialyzed FBS, 1.71 µM
[31] = RPMI 5 mM glucose + 10% dialyzed FBS, 5.12 µM
[32] = RPMI 5 mM glucose + 10% dialyzed FBS, 15.4 µM
[33] = RPMI 5 mM glucose + 10% dialyzed FBS, 46.1 µM

SMILES: C=C[C@H]1CN2CCC1C[C@@H]2C(O)c1ccnc2ccc(OC)cc12 (stereo partly drawn)
- cell viability [1]: 111%
- cell viability [2]: 133%
- cell viability [3]: 115%
- cell viability [4]: 107%
- cell viability [5]: 135%
- cell viability [6]: 116%
- cell viability [7]: 128%
- cell viability [8]: 108%
- cell viability [9]: 105%
- cell viability [10]: 125%
- cell viability [11]: 102%
- cell viability [12]: 111%
- cell viability [13]: 116%
- cell viability [14]: 114%
- cell viability [15]: 108%
- cell viability [16]: 127%
- cell viability [17]: 120%
- cell viability [18]: 119%
- cell viability [19]: 119%
- cell viability [20]: 116%
- cell viability [21]: 107%
- cell viability [22]: 104%
- cell viability [23]: 110%
- cell viability [24]: 119%
- cell viability [25]: 116%
- cell viability [26]: 121%
- cell viability [27]: 124%
- cell viability [28]: 110%
- cell viability [29]: 127%
- cell viability [30]: 117%
- cell viability [31]: 106%
- cell viability [32]: 107%
- cell viability [33]: 100%

SMILES: O=P(O)(O)C(O)(Cn1ccnc1)P(=O)(O)O
- cell viability [1]: 95.9%
- cell viability [2]: 126%
- cell viability [3]: 120%
- cell viability [4]: 119%
- cell viability [5]: 125%
- cell viability [6]: 130%
- cell viability [7]: 121%
- cell viability [8]: 139%
- cell viability [9]: 104%
- cell viability [10]: 111%
- cell viability [11]: 117%
- cell viability [12]: 93.5%
- cell viability [13]: 111%
- cell viability [14]: 108%
- cell viability [15]: 103%
- cell viability [16]: 105%
- cell viability [17]: 109%
- cell viability [18]: 101%
- cell viability [19]: 104%
- cell viability [20]: 110%
- cell viability [21]: 104%
- cell viability [22]: 101%
- cell viability [23]: 101%
- cell viability [24]: 127%
- cell viability [25]: 114%
- cell viability [26]: 130%
- cell viability [27]: 112%
- cell viability [28]: 133%
- cell viability [29]: 118%
- cell viability [30]: 124%
- cell viability [31]: 122%
- cell viability [32]: 117%
- cell viability [33]: 104%

SMILES: C[C@]12CC[C@H]3[C@@H](CCC4=CC(=O)CC[C@@H]43)[C@@H]1CC[C@@H]2OC(=O)CCc1ccccc1
- cell viability [12]: 126%
- cell viability [13]: 115%
- cell viability [14]: 119%
- cell viability [15]: 130%
- cell viability [16]: 114%
- cell viability [17]: 113%
- cell viability [18]: 112%
- cell viability [19]: 133%
- cell viability [20]: 115%
- cell viability [21]: 128%
- cell viability [22]: 78%
- cell viability [23]: 120%
- cell viability [24]: 127%
- cell viability [25]: 115%
- cell viability [26]: 124%
- cell viability [27]: 141%
- cell viability [28]: 135%
- cell viability [29]: 144%
- cell viability [30]: 133%
- cell viability [31]: 128%
- cell viability [32]: 137%
- cell viability [33]: 68.7%

SMILES: CCCNC(=O)Nc1ccc(Oc2ncnc3cc(OC)c(OC)cc23)cc1Cl
- cell viability [1]: 96.9%
- cell viability [2]: 98%
- cell viability [3]: 84.1%
- cell viability [4]: 95.7%
- cell viability [5]: 97.7%
- cell viability [6]: 87.9%
- cell viability [7]: 103%
- cell viability [8]: 81.8%
- cell viability [9]: 71%
- cell viability [10]: 71.6%
- cell viability [11]: 73.5%
- cell viability [12]: 89.6%
- cell viability [13]: 90.7%
- cell viability [14]: 84.7%
- cell viability [15]: 95.7%
- cell viability [16]: 86%
- cell viability [17]: 90.6%
- cell viability [18]: 81.9%
- cell viability [19]: 90.3%
- cell viability [20]: 87.4%
- cell viability [21]: 82%
- cell viability [22]: 77.6%
- cell viability [23]: 97.8%
- cell viability [24]: 92.4%
- cell viability [25]: 101%
- cell viability [26]: 96.7%
- cell viability [27]: 90.9%
- cell viability [28]: 88.4%
- cell viability [29]: 86.7%
- cell viability [30]: 84.4%
- cell viability [31]: 84.7%
- cell viability [32]: 81.9%
- cell viability [33]: 70.5%

SMILES: C[C@@H](CN1CC(=O)NC(=O)C1)N1CC(=O)NC(=O)C1
- cell viability [1]: 112%
- cell viability [2]: 125%
- cell viability [3]: 121%
- cell viability [4]: 117%
- cell viability [5]: 113%
- cell viability [6]: 55.7%
- cell viability [7]: 32.8%
- cell viability [8]: 22.3%
- cell viability [9]: 33%
- cell viability [10]: 8.92%
- cell viability [11]: 13.7%
- cell viability [12]: 106%
- cell viability [13]: 113%
- cell viability [14]: 125%
- cell viability [15]: 101%
- cell viability [16]: 113%
- cell viability [17]: 89%
- cell viability [18]: 55.9%
- cell viability [19]: 15.4%
- cell viability [20]: 17.5%
- cell viability [21]: 8.63%
- cell viability [22]: 12.9%
- cell viability [23]: 102%
- cell viability [24]: 111%
- cell viability [25]: 99.9%
- cell viability [26]: 114%
- cell viability [27]: 109%
- cell viability [28]: 83%
- cell viability [29]: 44.7%
- cell viability [30]: 18.8%
- cell viability [31]: 21.5%
- cell viability [32]: 17.2%
- cell viability [33]: 19.8%

SMILES: COc1c(C)c2c(c(O)c1C/C=C(\C)CCC(=O)O)C(=O)OC2
- cell viability [1]: 116%
- cell viability [2]: 109%
- cell viability [3]: 106%
- cell viability [4]: 107%
- cell viability [5]: 116%
- cell viability [6]: 95.4%
- cell viability [7]: 115%
- cell viability [8]: 100%
- cell viability [9]: 86.7%
- cell viability [10]: 45.2%
- cell viability [11]: 32.6%
- cell viability [12]: 101%
- cell viability [13]: 107%
- cell viability [14]: 102%
- cell viability [15]: 94.4%
- cell viability [16]: 109%
- cell viability [17]: 94.9%
- cell viability [18]: 102%
- cell viability [19]: 109%
- cell viability [20]: 84.6%
- cell viability [21]: 47.5%
- cell viability [22]: 22.3%
- cell viability [23]: 98.4%
- cell viability [24]: 96.7%
- cell viability [25]: 105%
- cell viability [26]: 97.3%
- cell viability [27]: 100%
- cell viability [28]: 108%
- cell viability [29]: 84.7%
- cell viability [30]: 89.5%
- cell viability [31]: 90.4%
- cell viability [32]: 58%
- cell viability [33]: 38.3%

SMILES: COc1cc2c(cc1OC)CN(CCc1ccc(NC(=O)c3cc(OC)c(OC)cc3NC(=O)c3cnc4ccccc4c3)cc1)CC2
- cell viability [1]: 118%
- cell viability [2]: 121%
- cell viability [3]: 123%
- cell viability [4]: 122%
- cell viability [5]: 128%
- cell viability [6]: 122%
- cell viability [7]: 109%
- cell viability [8]: 119%
- cell viability [9]: 114%
- cell viability [10]: 95.3%
- cell viability [11]: 94.1%
- cell viability [12]: 107%
- cell viability [13]: 106%
- cell viability [14]: 123%
- cell viability [15]: 118%
- cell viability [16]: 123%
- cell viability [17]: 118%
- cell viability [18]: 127%
- cell viability [19]: 106%
- cell viability [20]: 107%
- cell viability [21]: 107%
- cell viability [22]: 96.5%
- cell viability [23]: 118%
- cell viability [24]: 122%
- cell viability [25]: 113%
- cell viability [26]: 126%
- cell viability [27]: 115%
- cell viability [28]: 126%
- cell viability [29]: 116%
- cell viability [30]: 124%
- cell viability [31]: 120%
- cell viability [32]: 102%
- cell viability [33]: 91.5%

SMILES: Cc1ccc([S+](=O)([O-])OCC(=O)Nc2ccc(C(=O)O)c(O)c2)cc1
- cell viability [1]: 141%
- cell viability [2]: 123%
- cell viability [3]: 121%
- cell viability [4]: 117%
- cell viability [5]: 124%
- cell viability [6]: 145%
- cell viability [7]: 128%
- cell viability [8]: 132%
- cell viability [9]: 124%
- cell viability [10]: 146%
- cell viability [11]: 84.1%
- cell viability [12]: 122%
- cell viability [13]: 119%
- cell viability [14]: 124%
- cell viability [15]: 139%
- cell viability [16]: 133%
- cell viability [17]: 150%
- cell viability [18]: 133%
- cell viability [19]: 130%
- cell viability [20]: 118%
- cell viability [21]: 121%
- cell viability [22]: 102%
- cell viability [23]: 106%
- cell viability [24]: 113%
- cell viability [25]: 127%
- cell viability [26]: 121%
- cell viability [27]: 131%
- cell viability [28]: 139%
- cell viability [29]: 142%
- cell viability [30]: 142%
- cell viability [31]: 146%
- cell viability [32]: 146%
- cell viability [33]: 122%
